From the METLIN SMRT retention time set (Domingo-Almenara et al. 2019) come the findings set out here.

The nature of the data set: gradient 5% acetonitrile 3 min, to 50% in 2 min, to 85% in 15 min, held 3 min, 100 µL/min. The note with it: column: Zorbax Extend-C18 2.1 x 50 mm; eluents: water / acetonitrile, 0.1% formic acid. A digest of the protocol:
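Standards, all pure, were combined into mixtures of ~100 molecules and run at 100 μL/min on a Zorbax Extend-C18 column (2.1 × 50 mm, 1.8 μm) with water and acetonitrile, each containing 0.1% formic acid. A coupled quadrupole time-of-flight mass spectrometer operated in positive and negative ionization mode. Retention time values come from computationally picked adduct peaks, each inspected manually.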
`CC(C)NCC(O)c1ccc(N)c(C#N)c1` (centres undefined) returned an RP-LC retention time of 563 s.

Regarding `Cc1csc(-c2cc(S(=O)(=O)N3CCCc4ccccc43)c(C)s2)n1`, the RP-LC retention time worked out at 1210 s.

Regarding `O=C(NCc1csc(-c2cccs2)n1)C1CCN(S(=O)(=O)c2ccc(Cl)cc2)CC1`, the RP-LC retention time is 927 s.

For `CCc1nc(-c2csc(S(=O)(=O)N3CCCC(C(=O)NC(C)C)C3)c2)no1` (centres undefined), the RP-LC retention time stood at 865 s.

Compound `CCOC(=O)c1noc2nc(C)nc(N3CCN(c4ccccc4)CC3)c12` displayed an RP-LC retention time of 643 s.

In the case of `COc1ccc(Nc2c(-c3ccc(O)c(OC)c3)nc3nc(C)cc(C)n23)cc1`, the RP-LC retention time stood at 617 s.

As to `CCn1nc(CNC(=O)c2cc(C)cc(C)c2)c2ccccc21`, the RP-LC retention time was 938 s.

On to `COCCC1CCN(C(=O)c2ccc3nc[nH]c3c2)CC1`, for which the RP-LC retention time came to 572 s.

As to `COc1ccc(Cl)cc1NC(=O)N1CCCC1c1nc(-c2ccccc2)no1` (centres undefined), the RP-LC retention time worked out at 1140 s.

In turn, `CS(=O)(=O)N1CCCC(C(=O)NC2CCCC2)CCNC(=O)CC1` (centres undefined) registered an RP-LC retention time of 603 s.

`CN1C(=O)C(CC(=O)NC2CCCCC2)Sc2ncccc21` (centres undefined) showed an RP-LC retention time of 703 s.

On to `CCn1cc(CC(=O)NCc2ccc(N3CCOCC3)cc2)c2cccnc21`, for which the RP-LC retention time amounted to 632 s.

Compound `COc1ccc(NC(=O)C2CC(=O)N(CCc3c[nH]c4ccc(Cl)cc34)C2)c(OC)c1` (centres undefined) returned an RP-LC retention time of 820 s.

Regarding `CS(=O)(=O)Nc1ccc(C2(C(=O)NCc3cccs3)CCCCC2)cc1`, the RP-LC retention time amounted to 851 s.

`CC(CNC(=O)c1cn(C)nc1S(=O)(=O)N1CCSCC1)c1ccccc1` (centres undefined) registered an RP-LC retention time of 1120 s.

For `O=C(Cc1ccc(F)cc1)NC1CCN(c2cc(-c3ccccc3)[nH]n2)C1` (centres undefined), the RP-LC retention time was found to be 706 s.

For `Cn1nc(C(=O)N2CCCC2)c2c1CCN(C(=O)Nc1ccccc1Br)C2`, the RP-LC retention time was determined as 737 s.

`CC1Oc2ccc(-c3csc(NC(=O)c4cccc(Br)c4)n3)cc2NC1=O` (centres undefined) displayed an RP-LC retention time of 995 s.

In turn, `O=C(COc1ccc(Cl)cc1)NCc1ccc2c(c1)OCCCO2` came in with an RP-LC retention time of 870 s.

`COc1ccc(N2CCN(c3nc(C(=O)N4CCN(C(C)C)CC4)cs3)CC2)cc1` displayed an RP-LC retention time of 627 s.

The compound `Cc1ccc(Cn2c(=O)c(N3CCN(C(=O)NCc4ccco4)CC3)nc3cccnc32)cc1` yielded an RP-LC retention time of 706 s.

As for `CC(C)(C(N)=O)c1ccccc1`, the RP-LC retention time was 712 s.

Turning to `NC(=O)c1c(NC(=O)C2CCCN(C(=O)c3cc(F)cc(F)c3)C2)sc2c1CCCC2` (centres undefined), the RP-LC retention time stood at 1230 s.

For `COCCn1cc(C(=O)N2CCCc3ccccc32)c2nn(-c3ccccc3)c(=O)c-2c1`, the RP-LC retention time was found to be 943 s.

Regarding `CCc1nc(OCC(=O)NCCOC)c2c(-c3ccc(F)cc3)noc2n1`, the RP-LC retention time was 845 s.

`Cc1nc(-c2ccccc2)nc2c1CCC(=O)N2C`: the RP-LC retention time was 868 s.

In turn, `CCNC(=O)N1CCc2c([nH]c3ccccc23)C12C(=O)N(C)c1ccccc12` (centres undefined) registered an RP-LC retention time of 756 s.

Compound `CSc1ccccc1CN1CCC(CNC(=O)c2ccco2)CC1` showed an RP-LC retention time of 548 s.

In turn, `COCCN1[C@@H]2CCN(Cc3ccc(C#N)cc3)C[C@@]2(C(=O)N2CCOCC2)CCS1(=O)=O` registered an RP-LC retention time of 641 s.

Take `Cn1nc(C(=O)N2CCOCC2)c2c1CCN(C(=O)CCC(=O)NC1CCCCCC1)C2`: the RP-LC retention time was determined as 652 s.

In turn, `CCN1CCN(C(=O)C2CCN(S(=O)(=O)c3ccc4c(c3)sc(=O)n4C(C)C)CC2)CC1` showed an RP-LC retention time of 650 s.

In the case of `COc1ccc(Cl)cc1C(=O)Nc1ccc(-c2nc(C)no2)cc1`, the RP-LC retention time amounted to 719 s.

Compound `CCOC(=O)c1ccc2nc(NC(=O)C3CCCCN3S(C)(=O)=O)sc2c1` (centres undefined) came in with an RP-LC retention time of 839 s.

Turning to `CN(C)c1ccc(CNC(=O)Cn2nc(C(=O)N3CCCC3)c3ccccc32)cc1`, the RP-LC retention time was 612 s.

Compound `O=C(C1CCN(c2nc(-c3ccc(Cl)cc3)no2)CC1)N1CCOCC1` showed an RP-LC retention time of 874 s.

Take `COc1ccc(C(=O)CC(SCCO)c2ccc(Cl)cc2)cc1` (centres undefined): the RP-LC retention time was determined as 866 s.

Turning to `O=C(Nc1cccc(-c2nccnc2N2CCOCC2)c1)Nc1ccc(F)c(Cl)c1`, the RP-LC retention time was 868 s.

Take `Cc1cc2c3ccccc3ncn2n1`: the RP-LC retention time worked out at 855 s.

Compound `O=C(Cc1csc(NC(=O)c2ccsc2)n1)NCc1nc2ccccc2[nH]1` displayed an RP-LC retention time of 573 s.

`Cc1cc(C)cc(NS(=O)(=O)c2cc3n(c2)CCN(C)C3=O)c1` showed an RP-LC retention time of 727 s.

`COc1ccc(NC(=O)c2nnc(COCC(=O)NCCc3c[nH]c4ccc(C)cc34)s2)cc1`: the RP-LC retention time stood at 892 s.

Turning to `CC1(C)CC(=O)N(CC(=O)Nc2c(F)c(F)c(F)c(F)c2F)c2ccccc2S1(=O)=O`, the RP-LC retention time was found to be 860 s.

Take `CC(C)Oc1ccc(C(=O)N[C@H](CNC(=O)CN(C)C)Cc2ccc(-c3cn4cccc([C@H](C)O)c4n3)cc2)cc1Cl`: the RP-LC retention time was determined as 664 s.

The compound `C[C@H]1CN(C(=O)c2cc(F)cc(F)c2)C[C@@H]1c1nc(-c2cccnc2)no1` registered an RP-LC retention time of 795 s.

`Cc1ccc(-c2nc3nc(C)cc(C)n3c2Nc2c(C)cccc2C)cc1` gave an RP-LC retention time of 806 s.

Compound `O=C(C1=CN(c2ccc(F)cc2)c2ccccc2S1(=O)=O)N1CCOCC1` displayed an RP-LC retention time of 741 s.

`CCc1nc(-c2csc(S(=O)(=O)N3CCC(C(=O)NCc4ccccc4C)CC3)c2)no1` gave an RP-LC retention time of 818 s.

Consider `Cc1cccc(C2CC(=O)c3c(C)nc(N4CCN(CCO)CC4)nc3C2)c1` (centres undefined), for which the RP-LC retention time was determined as 665 s.

Compound `CCn1cc(-c2ccccc2)cc1C(=O)NC(C)c1ccccn1` (centres undefined) gave an RP-LC retention time of 749 s.

The compound `O=C(CCc1ccc2[nH]ccc2c1)N1CCN(c2ccc(F)cc2)CC1` showed an RP-LC retention time of 865 s.

For the compound `COc1ccc(-c2ncc3c(=O)n(Cc4ccccc4C)c(=O)n(C)c3n2)cc1`, the RP-LC retention time worked out at 679 s.

In turn, `Nc1nc(N2CCN(c3ccccc3F)CC2)ncc1C(=O)Nc1ccccc1` came in with an RP-LC retention time of 821 s.

`COc1ccc2c(CCNc3nc(-c4ccc(C5CCCCC5)cc4)cs3)c[nH]c2c1`: the RP-LC retention time amounted to 1250 s.

Consider `O=C(NCC(O)Cc1ccccc1)c1cccc(Cl)c1` (centres undefined), for which the RP-LC retention time was found to be 757 s.

The compound `COc1cccc(CNC(=O)Cn2c(N(C)Cc3ccccc3)nc(C)cc2=O)c1OC` came in with an RP-LC retention time of 660 s.

Compound `O=C(c1cn(-c2cc(N3CCCCC3)ncn2)cn1)N1CCN(c2ccccc2)CC1` returned an RP-LC retention time of 944 s.

Compound `Cc1ccc(CNC(=O)C2(C)CN(S(C)(=O)=O)CC(=O)N2c2ccc(C)c(C)c2)cc1` (centres undefined) yielded an RP-LC retention time of 807 s.

In the case of `O=C(Nc1nccnc1C(=O)NCc1ccncc1)c1ccccc1`, the RP-LC retention time was 590 s.

For the compound `CN1CCN(CCNC(=O)c2ccc3c(c2)nnn3Cc2ccc(F)cc2)CC1`, the RP-LC retention time worked out at 591 s.

`O=C(NC1CCN(c2cc(N3CCOCC3)cnn2)C1)c1ccc(Cl)s1` (centres undefined): the RP-LC retention time came out at 610 s.

In turn, `Cc1ncc(Cl)cc1NCc1ccc(C(=O)N[C@@H](CC2CCCC2)C(=O)NC2CC2)s1` showed an RP-LC retention time of 837 s.

`Cc1ccc(F)c(NC(=O)c2c(O)c3cccnc3n(-c3ccc(F)cc3)c2=O)c1` had an RP-LC retention time of 1140 s.

For `CCC(=O)N1CCc2c(sc3ncnc(N4CCN(C)CC4)c23)C1`, the RP-LC retention time worked out at 546 s.

Consider `O=C(CSCc1ccccc1)N1CCC(c2nnc(-c3ccco3)s2)CC1`, for which the RP-LC retention time is 837 s.

`COc1cccc(NC(=O)C2CCN(c3nc4ccc(-c5cncnc5)nc4s3)CC2)c1` registered an RP-LC retention time of 736 s.

In turn, `COc1cc(OC)cc(-c2nc(-c3ccc4c(c3)ncn4CCN3CCCCC3)no2)c1` showed an RP-LC retention time of 680 s.

Consider `COCCNC(=O)N1CCCN(C2=NS(=O)(=O)C(c3ccc(F)cc3)=C2C)CC1`, for which the RP-LC retention time worked out at 669 s.

Turning to `CCCNC(=O)c1nc(Nc2ccc(CC)cc2)c2ccccc2n1`, the RP-LC retention time amounted to 813 s.

The compound `O=C(C1CCN(c2nnc3ccc(Cl)cn23)CC1)N1CCOCC1` yielded an RP-LC retention time of 599 s.

`COc1cccc(OCC2c3ccsc3CCN2C(=O)CN(CC2CCCO2)C(C)=O)c1` (centres undefined) gave an RP-LC retention time of 788 s.

With `CCNC(=O)Nc1ccc(OCC(=O)NCc2cccc(OC)c2)nc1`, the RP-LC retention time worked out at 669 s.

Turning to `Cc1ccc(C(=O)Nc2nccnc2C(=O)N2CCC3(CC2)OCCO3)cc1`, the RP-LC retention time was determined as 724 s.

Take `CCCn1cc(CCNS(=O)(=O)c2cccc(C#N)c2)c2cccnc21`: the RP-LC retention time came out at 789 s.

Compound `CCN1CCN(S(=O)(=O)c2cc(-c3nc(C)cs3)n(CC(=O)N3CCCCC3)c2)CC1` registered an RP-LC retention time of 675 s.

Regarding `CCc1ccccc1NC(=O)C1CCN(S(=O)(=O)c2c(C)[nH]c(C)c2C(=O)N2CCCC2)CC1`, the RP-LC retention time was 726 s.

In turn, `CCOc1ccc(CC(=O)NC(C)C(=O)Nc2nc3ccccc3[nH]2)cc1OCC` (centres undefined) had an RP-LC retention time of 668 s.

Turning to `COCCC(=O)N1CCC(Oc2nccnc2N2CCc3ccccc32)C1` (centres undefined), the RP-LC retention time amounted to 797 s.

In the case of `Cc1ccc(-c2csc(NC(=O)COc3c(C)ccc(C)c3C)n2)cc1`, the RP-LC retention time was determined as 1320 s.

As to `Cc1cc(F)ccc1NC(=O)Cn1nc2cc(-c3ccccc3)nc(C)n2c1=O`, the RP-LC retention time is 909 s.
